Reference: ChEMBL document CHEMBL5465560, “Selectivity Literature for EUbOPEN Chemogenomic Library” (2024)
Each block holds one molecule with its values, some of them ahead of it.

Legend:
[1] = molecular target: Proto-oncogene tyrosine-protein kinase Src (Homo sapiens, UniProt P12931); test: Selectivity interaction (Kinase panel (Z-LYTE Assay)) EUB0001632a SRC; conditions: at 10 µM
[2] = molecular target: MAP/microtubule affinity-regulating kinase 3 (Homo sapiens) (UniProt P27448); test: Selectivity interaction (KinomeScan (DiscoverX)) EUB0001049a MARK3; conditions: at 1 µM
Chain of MAP/microtubule affinity-regulating kinase 3 (Homo sapiens) (P27448 whole entry, looked up, canonical isoform): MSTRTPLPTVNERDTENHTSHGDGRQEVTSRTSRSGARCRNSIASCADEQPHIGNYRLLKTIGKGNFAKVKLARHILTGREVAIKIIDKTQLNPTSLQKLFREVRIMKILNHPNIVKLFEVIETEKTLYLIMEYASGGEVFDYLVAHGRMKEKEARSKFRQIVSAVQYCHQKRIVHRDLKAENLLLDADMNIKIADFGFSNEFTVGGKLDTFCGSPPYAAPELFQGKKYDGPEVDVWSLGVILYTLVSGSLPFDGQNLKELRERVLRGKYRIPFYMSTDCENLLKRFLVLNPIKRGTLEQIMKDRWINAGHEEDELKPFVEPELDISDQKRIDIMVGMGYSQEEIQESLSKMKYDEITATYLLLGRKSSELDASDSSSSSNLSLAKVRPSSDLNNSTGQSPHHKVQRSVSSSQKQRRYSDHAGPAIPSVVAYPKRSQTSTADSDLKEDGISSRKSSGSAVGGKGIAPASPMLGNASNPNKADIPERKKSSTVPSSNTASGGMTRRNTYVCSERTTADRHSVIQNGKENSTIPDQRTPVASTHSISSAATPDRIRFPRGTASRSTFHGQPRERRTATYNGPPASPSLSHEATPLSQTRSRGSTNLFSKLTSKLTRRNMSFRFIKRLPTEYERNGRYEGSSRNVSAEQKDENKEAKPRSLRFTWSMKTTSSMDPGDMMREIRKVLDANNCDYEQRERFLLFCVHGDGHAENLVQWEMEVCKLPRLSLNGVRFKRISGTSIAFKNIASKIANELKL

[3] = molecular target: Casein kinase I isoform delta (Homo sapiens, UniProt P48730); test: Selectivity interaction (Ambit KINOMEscan and KiNATiv profiling in Jurkat cells) EUB0000090b CSNK1D; assay type: cell-based; conditions: at 1 µM
Chain of Casein kinase I isoform delta (P48730 whole entry, looked up, canonical isoform): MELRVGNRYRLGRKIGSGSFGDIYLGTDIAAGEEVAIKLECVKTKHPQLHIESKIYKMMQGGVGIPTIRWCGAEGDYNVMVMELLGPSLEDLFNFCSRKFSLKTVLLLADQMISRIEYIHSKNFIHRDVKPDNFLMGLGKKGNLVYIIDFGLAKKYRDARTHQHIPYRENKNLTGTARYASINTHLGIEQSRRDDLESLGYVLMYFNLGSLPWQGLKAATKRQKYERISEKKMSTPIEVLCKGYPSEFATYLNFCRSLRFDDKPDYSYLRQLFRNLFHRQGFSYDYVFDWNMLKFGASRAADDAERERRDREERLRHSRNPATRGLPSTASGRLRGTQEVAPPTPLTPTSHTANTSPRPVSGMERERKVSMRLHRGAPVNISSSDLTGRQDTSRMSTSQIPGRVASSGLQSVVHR

[4] = molecular target: Dual specificity tyrosine-phosphorylation-regulated kinase 1B (Homo sapiens, UniProt Q9Y463); test: Selectivity interaction (KinomeScan (DiscoverX)) EUB0000655a DYRK1B; conditions: at 10 µM
Chain of Dual specificity tyrosine-phosphorylation-regulated kinase 1B (Q9Y463 whole entry, looked up): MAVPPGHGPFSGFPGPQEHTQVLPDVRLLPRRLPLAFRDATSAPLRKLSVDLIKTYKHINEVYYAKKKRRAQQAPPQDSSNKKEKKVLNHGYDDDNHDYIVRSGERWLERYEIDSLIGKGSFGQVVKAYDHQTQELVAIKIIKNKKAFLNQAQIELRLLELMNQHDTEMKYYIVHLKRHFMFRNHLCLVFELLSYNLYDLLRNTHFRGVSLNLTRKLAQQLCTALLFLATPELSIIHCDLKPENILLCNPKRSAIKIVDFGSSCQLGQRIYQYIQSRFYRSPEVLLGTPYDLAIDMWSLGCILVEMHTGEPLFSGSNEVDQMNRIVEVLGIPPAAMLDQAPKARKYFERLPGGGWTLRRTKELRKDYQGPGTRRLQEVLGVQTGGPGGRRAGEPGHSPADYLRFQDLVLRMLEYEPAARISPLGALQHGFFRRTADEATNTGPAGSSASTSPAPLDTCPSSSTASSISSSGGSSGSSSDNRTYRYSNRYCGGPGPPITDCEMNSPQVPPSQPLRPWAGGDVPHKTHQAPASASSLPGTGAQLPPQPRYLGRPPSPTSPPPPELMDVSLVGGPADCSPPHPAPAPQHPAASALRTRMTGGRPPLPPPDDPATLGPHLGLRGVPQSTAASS

[5] = molecular target: T1, Receptor-interacting serine/threonine-protein kinase 4 (Homo sapiens) (UniProt P57078); test: Selectivity interaction (KinomeScan (DiscoverX)) EUB0000655a RIPK4; conditions: at 10 µM
T1 sequence (whole entry): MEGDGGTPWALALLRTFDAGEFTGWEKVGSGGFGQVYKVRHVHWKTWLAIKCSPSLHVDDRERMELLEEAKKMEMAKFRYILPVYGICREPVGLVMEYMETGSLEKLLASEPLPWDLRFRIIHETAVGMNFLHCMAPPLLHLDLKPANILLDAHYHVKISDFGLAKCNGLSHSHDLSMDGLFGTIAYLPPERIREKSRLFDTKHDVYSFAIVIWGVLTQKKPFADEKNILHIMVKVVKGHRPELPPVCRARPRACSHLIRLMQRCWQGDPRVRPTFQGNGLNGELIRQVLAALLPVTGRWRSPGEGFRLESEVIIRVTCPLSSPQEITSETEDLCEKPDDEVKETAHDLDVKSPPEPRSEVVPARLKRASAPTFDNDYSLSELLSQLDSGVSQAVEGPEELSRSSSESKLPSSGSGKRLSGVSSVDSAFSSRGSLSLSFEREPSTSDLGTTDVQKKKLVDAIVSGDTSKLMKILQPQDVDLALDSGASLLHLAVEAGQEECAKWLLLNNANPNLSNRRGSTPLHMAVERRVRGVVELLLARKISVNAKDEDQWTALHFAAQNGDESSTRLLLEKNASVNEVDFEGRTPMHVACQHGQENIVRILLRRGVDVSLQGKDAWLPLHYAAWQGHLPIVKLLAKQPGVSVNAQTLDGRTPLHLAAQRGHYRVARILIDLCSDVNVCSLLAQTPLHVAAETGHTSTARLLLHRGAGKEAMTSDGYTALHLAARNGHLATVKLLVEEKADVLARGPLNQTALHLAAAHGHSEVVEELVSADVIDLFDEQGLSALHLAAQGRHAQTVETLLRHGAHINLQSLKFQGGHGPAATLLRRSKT

[6] = molecular target: Serine/threonine-protein kinase PAK 6 (Homo sapiens) (UniProt Q9NQU5); test: Selectivity interaction (KinomeScan (DiscoverX)) EUB0001079a PAK6; conditions: at 1 µM
Chain of Serine/threonine-protein kinase PAK 6 (Homo sapiens) (Q9NQU5 whole entry, looked up): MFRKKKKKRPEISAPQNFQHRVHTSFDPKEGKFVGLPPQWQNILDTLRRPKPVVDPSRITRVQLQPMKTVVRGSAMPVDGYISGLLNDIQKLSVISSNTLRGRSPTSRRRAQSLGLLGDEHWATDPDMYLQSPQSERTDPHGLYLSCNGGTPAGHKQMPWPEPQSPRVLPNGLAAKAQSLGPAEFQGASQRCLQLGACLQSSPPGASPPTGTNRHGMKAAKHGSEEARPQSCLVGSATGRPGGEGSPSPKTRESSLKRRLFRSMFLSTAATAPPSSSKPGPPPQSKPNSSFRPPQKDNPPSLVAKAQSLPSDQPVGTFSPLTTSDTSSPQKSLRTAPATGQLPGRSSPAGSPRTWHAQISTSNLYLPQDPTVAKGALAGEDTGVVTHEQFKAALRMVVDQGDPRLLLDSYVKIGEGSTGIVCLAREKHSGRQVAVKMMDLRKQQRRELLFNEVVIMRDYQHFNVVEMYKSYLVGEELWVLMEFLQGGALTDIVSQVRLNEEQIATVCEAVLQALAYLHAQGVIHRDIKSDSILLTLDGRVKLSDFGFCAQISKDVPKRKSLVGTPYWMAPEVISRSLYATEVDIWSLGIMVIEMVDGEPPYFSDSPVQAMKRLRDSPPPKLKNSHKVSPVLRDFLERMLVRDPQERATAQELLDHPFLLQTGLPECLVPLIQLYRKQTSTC

[7] = molecular target: Casein kinase II subunit alpha (Homo sapiens, UniProt P68400); test: Selectivity interaction (KinomeScan (DiscoverX)) EUB0000229b CSNK2A1; conditions: at 10 µM
Chain of Casein kinase II subunit alpha (P68400 whole entry, looked up): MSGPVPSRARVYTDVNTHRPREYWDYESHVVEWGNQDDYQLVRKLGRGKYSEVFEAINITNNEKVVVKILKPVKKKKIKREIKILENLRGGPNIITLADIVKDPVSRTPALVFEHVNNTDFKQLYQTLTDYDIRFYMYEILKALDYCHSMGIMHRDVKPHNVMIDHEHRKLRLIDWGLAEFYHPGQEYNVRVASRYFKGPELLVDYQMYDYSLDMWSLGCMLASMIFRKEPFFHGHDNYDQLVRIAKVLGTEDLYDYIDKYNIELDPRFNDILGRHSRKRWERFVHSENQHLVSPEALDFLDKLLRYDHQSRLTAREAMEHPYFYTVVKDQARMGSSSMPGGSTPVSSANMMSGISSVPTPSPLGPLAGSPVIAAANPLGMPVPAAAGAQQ

[8] = molecular target: Serine/threonine-protein kinase tousled-like 2 (Homo sapiens) (UniProt Q86UE8); test: Selectivity interaction (KinomeScan (DiscoverX)) EUB0000618a TLK2; conditions: at 10 µM
Chain of Serine/threonine-protein kinase tousled-like 2 (Homo sapiens) (Q86UE8 whole entry, looked up): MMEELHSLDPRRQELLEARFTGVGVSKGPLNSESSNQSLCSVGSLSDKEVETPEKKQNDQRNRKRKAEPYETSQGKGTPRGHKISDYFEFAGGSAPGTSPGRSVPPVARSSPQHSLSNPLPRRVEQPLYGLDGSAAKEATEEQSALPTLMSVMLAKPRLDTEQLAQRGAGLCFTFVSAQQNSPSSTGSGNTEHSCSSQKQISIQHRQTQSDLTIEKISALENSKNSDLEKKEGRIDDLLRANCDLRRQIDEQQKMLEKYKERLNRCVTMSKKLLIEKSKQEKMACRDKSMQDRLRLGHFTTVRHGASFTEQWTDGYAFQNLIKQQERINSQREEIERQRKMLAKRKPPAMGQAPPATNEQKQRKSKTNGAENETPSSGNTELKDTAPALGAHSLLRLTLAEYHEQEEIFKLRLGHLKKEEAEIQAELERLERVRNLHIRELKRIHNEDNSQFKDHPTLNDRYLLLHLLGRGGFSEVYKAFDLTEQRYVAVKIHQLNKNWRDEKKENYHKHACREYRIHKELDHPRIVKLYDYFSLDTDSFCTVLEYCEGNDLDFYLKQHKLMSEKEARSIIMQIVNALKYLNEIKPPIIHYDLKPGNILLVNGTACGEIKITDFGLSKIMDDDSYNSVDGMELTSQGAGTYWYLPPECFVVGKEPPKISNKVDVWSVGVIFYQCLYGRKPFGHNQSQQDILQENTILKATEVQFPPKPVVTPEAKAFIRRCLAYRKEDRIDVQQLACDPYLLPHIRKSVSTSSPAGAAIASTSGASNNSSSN

[9] = molecular target: T2, Cyclin-G-associated kinase (Homo sapiens) (UniProt O14976); test: Selectivity interaction (KinomeScan (DiscoverX)) EUB0001619a GAK; conditions: at 1 µM
T2 sequence (whole entry): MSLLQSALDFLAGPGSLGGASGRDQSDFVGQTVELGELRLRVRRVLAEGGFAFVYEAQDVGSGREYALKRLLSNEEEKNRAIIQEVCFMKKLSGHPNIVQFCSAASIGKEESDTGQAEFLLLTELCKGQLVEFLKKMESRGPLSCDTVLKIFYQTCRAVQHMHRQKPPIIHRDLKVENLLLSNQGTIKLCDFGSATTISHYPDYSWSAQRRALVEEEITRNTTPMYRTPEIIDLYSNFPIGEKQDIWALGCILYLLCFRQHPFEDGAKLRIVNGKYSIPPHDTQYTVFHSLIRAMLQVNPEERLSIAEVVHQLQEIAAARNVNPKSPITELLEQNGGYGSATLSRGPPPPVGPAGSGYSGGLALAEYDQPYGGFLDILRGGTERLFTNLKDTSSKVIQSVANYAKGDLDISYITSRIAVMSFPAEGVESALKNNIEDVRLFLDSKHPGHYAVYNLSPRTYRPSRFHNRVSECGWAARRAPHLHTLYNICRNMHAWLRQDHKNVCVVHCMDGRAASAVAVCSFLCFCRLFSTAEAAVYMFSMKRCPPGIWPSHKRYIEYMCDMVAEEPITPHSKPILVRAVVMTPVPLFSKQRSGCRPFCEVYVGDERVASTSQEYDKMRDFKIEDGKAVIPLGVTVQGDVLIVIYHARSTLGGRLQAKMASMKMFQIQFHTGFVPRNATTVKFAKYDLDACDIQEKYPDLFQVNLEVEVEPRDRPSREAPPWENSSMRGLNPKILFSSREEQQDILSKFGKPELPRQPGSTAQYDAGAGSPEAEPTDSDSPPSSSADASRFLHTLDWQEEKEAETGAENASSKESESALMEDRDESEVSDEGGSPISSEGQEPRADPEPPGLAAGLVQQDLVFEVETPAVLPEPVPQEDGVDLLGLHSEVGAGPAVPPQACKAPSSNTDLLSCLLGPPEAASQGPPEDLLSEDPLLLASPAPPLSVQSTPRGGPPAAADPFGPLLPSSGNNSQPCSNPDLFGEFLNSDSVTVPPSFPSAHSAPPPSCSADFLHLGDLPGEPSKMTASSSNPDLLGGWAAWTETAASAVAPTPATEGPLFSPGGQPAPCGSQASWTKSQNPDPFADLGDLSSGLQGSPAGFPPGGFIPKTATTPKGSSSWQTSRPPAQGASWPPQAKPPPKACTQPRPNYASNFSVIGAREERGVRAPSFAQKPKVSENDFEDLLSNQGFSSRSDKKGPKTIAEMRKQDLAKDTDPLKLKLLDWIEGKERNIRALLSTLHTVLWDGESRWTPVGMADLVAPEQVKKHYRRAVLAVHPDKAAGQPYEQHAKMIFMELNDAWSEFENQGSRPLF

[10] = molecular target: Calcium/calmodulin-dependent protein kinase type II subunit gamma (Homo sapiens) (UniProt Q13555); test: Selectivity interaction (KinomeScan (DiscoverX)) EUB0001619a CAMK2G; conditions: at 1 µM
Chain of Calcium/calmodulin-dependent protein kinase type II subunit gamma (Homo sapiens) (Q13555 whole entry): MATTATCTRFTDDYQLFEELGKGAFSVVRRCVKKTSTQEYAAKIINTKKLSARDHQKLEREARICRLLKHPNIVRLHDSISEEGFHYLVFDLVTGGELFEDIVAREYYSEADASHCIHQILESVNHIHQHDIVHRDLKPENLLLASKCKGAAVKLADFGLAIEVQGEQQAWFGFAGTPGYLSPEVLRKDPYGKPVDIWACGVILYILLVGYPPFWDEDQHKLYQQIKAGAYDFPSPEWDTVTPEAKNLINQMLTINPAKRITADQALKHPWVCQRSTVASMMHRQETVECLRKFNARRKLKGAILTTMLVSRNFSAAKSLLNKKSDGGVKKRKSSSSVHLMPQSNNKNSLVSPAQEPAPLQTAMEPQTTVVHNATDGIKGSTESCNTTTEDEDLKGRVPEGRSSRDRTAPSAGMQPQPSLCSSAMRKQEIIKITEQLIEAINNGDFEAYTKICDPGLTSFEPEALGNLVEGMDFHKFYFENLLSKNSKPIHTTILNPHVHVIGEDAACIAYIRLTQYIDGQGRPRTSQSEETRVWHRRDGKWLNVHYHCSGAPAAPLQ

Chain of Proto-oncogene tyrosine-protein kinase Src (P12931 2-536 limits assumed): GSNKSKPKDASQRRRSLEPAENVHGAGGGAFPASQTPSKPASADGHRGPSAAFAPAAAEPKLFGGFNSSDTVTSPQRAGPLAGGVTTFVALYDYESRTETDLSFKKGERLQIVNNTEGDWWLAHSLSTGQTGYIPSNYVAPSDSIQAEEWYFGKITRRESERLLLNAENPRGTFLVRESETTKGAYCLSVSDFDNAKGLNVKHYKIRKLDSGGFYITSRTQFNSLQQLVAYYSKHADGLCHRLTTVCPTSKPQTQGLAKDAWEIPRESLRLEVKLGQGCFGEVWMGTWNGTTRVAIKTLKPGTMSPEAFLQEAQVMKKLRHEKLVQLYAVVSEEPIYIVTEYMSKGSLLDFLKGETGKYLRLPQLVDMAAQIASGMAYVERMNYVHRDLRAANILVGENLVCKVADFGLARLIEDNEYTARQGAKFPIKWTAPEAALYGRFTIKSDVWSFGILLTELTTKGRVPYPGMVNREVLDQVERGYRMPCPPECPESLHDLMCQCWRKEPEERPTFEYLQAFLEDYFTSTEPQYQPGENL

- % of control [1]: 12.1%
SMILES: Cn1cc(-n2cnc3c(NCc4nc5cc(Cl)c(Cl)cc5[nH]4)nc(N4CCOCC4)nc32)cn1

SMILES: COc1cc(Nc2nc(C)cc(-c3cnn4nc(OC)ccc34)n2)cc(C(F)(F)F)c1
- % of control [2]: 77%

SMILES: CN(C)C/C=C/C(=O)Nc1ccc(C(=O)N2CCCC(Nc3ncc(Cl)c(-c4c[nH]c5ccccc45)n3)C2)cc1 (stereo not given)
- % of control [3]: 80%

SMILES: CN(C)CCOc1ccc(-c2nc(-c3ccncc3)c(-c3ccc4c(c3)CC/C4=N\O)[nH]2)cc1
- % of control [4]: 100%
- % of control [5]: 100%

SMILES: Nc1cnc(N2CCc3cc(S(=O)(=O)Nc4c(F)cc(Cl)cc4F)cc(N4CCCC4=O)c32)nc1 [TP-020n]
- % of control [6]: 90%

SMILES: COc1cc(N(C)c2ccnc3ccc(C(F)(F)F)cc23)cc(OC)c1OC
- % binding [7]: 67%

SMILES: O[C@H]1CC[C@H](Nc2ncc3nc(Nc4c(F)cc(F)cc4F)n([C@H]4CCOC4)c3n2)CC1
- % of control [8]: 99%

SMILES: N#Cc1cccc(-c2c[nH]c3ncnc(N4CCOCC4)c23)c1
- % of control [9]: 100%
- % of control [10]: 100%
